In ChEMBL document CHEMBL1135499, “Further characterization of structural requirements for ligands at the dopamine D(2) and D(3) receptor: exploring the thiophene moiety” (J Med Chem, 2002):

Assays:
[1] = target: D(3) dopamine receptor (Homo sapiens, UniProt P35462); experiment: biochemical
Description: In vitro binding affinity at human Dopamine receptor D3 expressed in CHO K1 cells was measured by its ability to displace [3H]spiperone

[2] = target: D(2) dopamine receptor (Homo sapiens, UniProt P14416); experiment: biochemical
Description: In vitro binding affinity at human Dopamine receptor D2 expressed in CHO K1 cells was measured by its ability to displace [3H]- N-0437

[3] = Oral bioavailability in rat; assay type: ADME, organism-based; details: in vivo

Chain of D(2) dopamine receptor (P14416 whole entry): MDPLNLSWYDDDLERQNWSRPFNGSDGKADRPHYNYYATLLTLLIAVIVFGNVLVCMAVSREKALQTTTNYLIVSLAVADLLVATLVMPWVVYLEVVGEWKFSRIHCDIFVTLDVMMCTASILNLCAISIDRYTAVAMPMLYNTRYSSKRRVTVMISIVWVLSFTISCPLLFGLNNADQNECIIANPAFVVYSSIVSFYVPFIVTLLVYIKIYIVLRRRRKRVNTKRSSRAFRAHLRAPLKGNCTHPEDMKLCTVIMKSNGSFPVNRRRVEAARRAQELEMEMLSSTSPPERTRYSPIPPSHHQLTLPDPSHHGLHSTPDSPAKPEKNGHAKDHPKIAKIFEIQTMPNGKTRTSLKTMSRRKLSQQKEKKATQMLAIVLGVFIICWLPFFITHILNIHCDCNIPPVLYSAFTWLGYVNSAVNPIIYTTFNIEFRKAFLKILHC
Chain of D(3) dopamine receptor (P35462 whole entry): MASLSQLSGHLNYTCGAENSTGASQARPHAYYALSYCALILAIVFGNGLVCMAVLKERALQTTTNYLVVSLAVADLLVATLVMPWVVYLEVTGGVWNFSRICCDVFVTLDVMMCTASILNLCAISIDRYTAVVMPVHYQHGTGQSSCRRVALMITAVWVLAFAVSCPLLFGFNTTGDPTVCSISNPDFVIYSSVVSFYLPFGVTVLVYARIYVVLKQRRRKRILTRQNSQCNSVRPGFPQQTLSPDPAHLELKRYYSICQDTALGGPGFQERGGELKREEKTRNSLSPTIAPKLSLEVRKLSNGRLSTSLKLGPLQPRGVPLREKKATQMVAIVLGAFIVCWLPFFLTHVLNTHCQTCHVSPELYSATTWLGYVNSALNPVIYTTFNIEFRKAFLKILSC

Compound | Ki [1] [µM] | Ki [2] [µM] | bioavailability [3] [%]
CCCN(CCC)C1CCc2sccc2C1 (stereo unspecified) | 0.04 | 0.02 | > 10
Oc1ccc2c(c1)C1OCCN(CCc3cccs3)C1CC2 (racemic) | 0.083 | 3.68 | –
CCCN1CC(c2ccccc2)OC2c3cc(O)ccc3CCC21 (racemic) | 0.012 | 0.375 | –
c1cc2c(s1)CCC1NCCOC21 (stereo unspecified) | 3 | > 4.78 | –
CCCN1CCOC2c3ccsc3CCC21 (stereo unspecified) | 0.24 | 0.63 | –
CCCN(CCC)C1CCc2ccsc2C1 (stereo unspecified) | 0.028 | 0.027 | 10
CCCN(CCC)[C@@H]1Cc2cccc(O)c2C[C@H]1C | 0.00054 | 0.014 | –

Second part, led by results:

Ki [1] [µM] | Ki [2] [µM] | Compound | bioavailability [3] [%]
1.57 | > 3.68 | Oc1ccc2c(c1)C1OCCN(CCc3ccccc3)C1CC2 (racemic) | –
0.108 | 0.439 | CCCN(CCc1ccsc1)CCc1ccsc1 | –
0.06 | 3.11 | CCCN(CCC)CC1CCc2ccsc2C1 (stereo unspecified) | –
0.247 | 2.04 | CCCN(CCC)CC1CCc2sccc2C1 (stereo unspecified) | –
0.117 | 1.08 | CCCN(CCc1ccsc1)CCc1cccs1 | –
